According to patent US9249129B2, “Morpholino substituted urea derivatives as mTOR inhibitors” (CELLZOME LIMITED, priority 2010, dated 2016):

What was measured:
Experiment in all cases: kinobeads assay with mass spectrometry detection of kinases (kinase selectivity profile)
Assay type in all cases: binding
kinases (kinome) [1] = target: T1, kinases (kinome) (Homo sapiens, UniProt O75716); conditions: MPSK1 (Other), IPI00915837
T1 construct: determined in kinobeads assays with mass spectrometry detection of kinases as described previously; endogenous in cells; host or cells: cell lysate
Description: (§1) The protein kinase complement of the human genome (the kinome) was described previously (Manning et al., 2002. Science 298(5600):1912-1934). Sequence accession numbers are defined by the International Protein Index (IPI) (Kersey et al., 2004. Proteomics 4(7):1985-1988).

kinases (kinome) [2] = target: T2, kinases (kinome) (Homo sapiens, UniProt Q02750); conditions: MAP2K1 (STE), IPI00219604
T2 construct: determined in kinobeads assays with mass spectrometry detection of kinases as described previously; endogenous in cells; host or cells: cell lysate
Description: as §1

kinases (kinome) [3] = target: T3, kinases (kinome) (Homo sapiens, UniProt P06493); conditions: CDC2 (CMGC), IPI00026689
T3 construct: determined in kinobeads assays with mass spectrometry detection of kinases as described previously; endogenous in cells; host or cells: cell lysate
Description: as §1

kinases (kinome) [4] = target: T4, kinases (kinome) (Homo sapiens, UniProt Q8N5S9); conditions: CaMKK1 (Other), IPI00792960
T4 construct: determined in kinobeads assays with mass spectrometry detection of kinases as described previously; endogenous in cells; host or cells: cell lysate
Description: as §1

kinases (kinome) [5] = target: T5, kinases (kinome) (Homo sapiens, UniProt P36507); conditions: MAP2K2 (STE), IPI00003783
T5 construct: determined in kinobeads assays with mass spectrometry detection of kinases as described previously; endogenous in cells; host or cells: cell lysate
Description: as §1

kinases (kinome) [6] = target: T6, kinases (kinome) (Homo sapiens, UniProt P52333); conditions: JAK3 (TK), IPI00219418
T6 construct: determined in kinobeads assays with mass spectrometry detection of kinases as described previously; endogenous in cells; host or cells: cell lysate
T6 sequence (P52333 1-1124): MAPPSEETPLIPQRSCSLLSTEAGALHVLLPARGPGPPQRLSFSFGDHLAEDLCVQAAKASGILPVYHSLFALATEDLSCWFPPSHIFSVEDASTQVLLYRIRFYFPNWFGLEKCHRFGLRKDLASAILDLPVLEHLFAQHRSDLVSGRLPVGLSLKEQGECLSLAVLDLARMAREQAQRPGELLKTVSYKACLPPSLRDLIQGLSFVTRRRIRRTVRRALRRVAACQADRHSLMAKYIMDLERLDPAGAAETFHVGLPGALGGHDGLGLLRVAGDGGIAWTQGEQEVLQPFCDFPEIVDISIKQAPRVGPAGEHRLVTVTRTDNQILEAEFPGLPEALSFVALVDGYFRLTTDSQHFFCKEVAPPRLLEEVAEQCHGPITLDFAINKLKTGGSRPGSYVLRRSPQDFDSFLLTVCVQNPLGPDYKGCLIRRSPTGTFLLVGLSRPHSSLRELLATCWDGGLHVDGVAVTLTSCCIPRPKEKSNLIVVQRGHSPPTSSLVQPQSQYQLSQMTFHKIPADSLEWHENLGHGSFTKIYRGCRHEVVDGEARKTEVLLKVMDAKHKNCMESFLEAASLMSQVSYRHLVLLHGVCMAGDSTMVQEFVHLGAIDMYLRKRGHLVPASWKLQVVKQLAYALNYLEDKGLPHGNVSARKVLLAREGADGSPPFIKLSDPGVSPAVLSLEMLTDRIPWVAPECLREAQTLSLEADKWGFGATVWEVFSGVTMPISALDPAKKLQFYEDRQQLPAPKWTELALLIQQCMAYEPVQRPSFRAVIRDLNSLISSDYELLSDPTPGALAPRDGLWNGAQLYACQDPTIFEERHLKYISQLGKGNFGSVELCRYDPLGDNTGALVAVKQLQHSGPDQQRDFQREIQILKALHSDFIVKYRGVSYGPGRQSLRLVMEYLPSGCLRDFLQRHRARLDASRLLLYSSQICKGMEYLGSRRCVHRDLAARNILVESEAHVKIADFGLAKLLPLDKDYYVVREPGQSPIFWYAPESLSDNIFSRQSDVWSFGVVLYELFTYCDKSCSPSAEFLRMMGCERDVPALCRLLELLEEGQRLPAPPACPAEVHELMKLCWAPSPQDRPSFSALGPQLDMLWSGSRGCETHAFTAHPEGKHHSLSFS
Description: as §1

kinases (kinome) [7] = target: T7, kinases (kinome) (Homo sapiens, UniProt P51617); conditions: IRAK1 (TKL), IPI00293652
T7 construct: determined in kinobeads assays with mass spectrometry detection of kinases as described previously; endogenous in cells; host or cells: cell lysate
Description: as §1

kinases (kinome) [8] = target: T8, kinases (kinome) (Homo sapiens, UniProt Q16584); conditions: MLK3 (TKL), IPI00000977
T8 construct: determined in kinobeads assays with mass spectrometry detection of kinases as described previously; endogenous in cells; host or cells: cell lysate
Description: as §1

kinases (kinome) [9] = target: T9, kinases (kinome) (Homo sapiens, UniProt Q16566); conditions: CaMK4 (CAMK), IPI00430411
T9 construct: determined in kinobeads assays with mass spectrometry detection of kinases as described previously; endogenous in cells; host or cells: cell lysate
T9 sequence (Q16566 1-473): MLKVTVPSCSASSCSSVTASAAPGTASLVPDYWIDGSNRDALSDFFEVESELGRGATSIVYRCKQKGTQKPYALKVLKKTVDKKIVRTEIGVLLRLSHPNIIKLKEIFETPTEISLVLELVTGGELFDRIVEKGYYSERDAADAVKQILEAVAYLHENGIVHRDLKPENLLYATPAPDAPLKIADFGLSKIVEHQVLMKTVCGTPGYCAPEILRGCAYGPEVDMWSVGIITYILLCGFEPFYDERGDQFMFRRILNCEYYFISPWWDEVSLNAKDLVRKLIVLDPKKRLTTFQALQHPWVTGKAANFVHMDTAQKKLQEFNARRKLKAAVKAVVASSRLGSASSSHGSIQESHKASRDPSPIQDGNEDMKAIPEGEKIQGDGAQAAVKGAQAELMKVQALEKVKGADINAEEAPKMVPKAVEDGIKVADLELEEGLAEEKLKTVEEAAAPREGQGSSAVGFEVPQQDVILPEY
Description: as §1

kinases (kinome) [10] = target: T10, kinases (kinome) (Homo sapiens, UniProt Q13188); conditions: MST2 (STE), IPI00411984
T10 construct: determined in kinobeads assays with mass spectrometry detection of kinases as described previously; endogenous in cells; host or cells: cell lysate
T10 sequence (Q13188 1-491): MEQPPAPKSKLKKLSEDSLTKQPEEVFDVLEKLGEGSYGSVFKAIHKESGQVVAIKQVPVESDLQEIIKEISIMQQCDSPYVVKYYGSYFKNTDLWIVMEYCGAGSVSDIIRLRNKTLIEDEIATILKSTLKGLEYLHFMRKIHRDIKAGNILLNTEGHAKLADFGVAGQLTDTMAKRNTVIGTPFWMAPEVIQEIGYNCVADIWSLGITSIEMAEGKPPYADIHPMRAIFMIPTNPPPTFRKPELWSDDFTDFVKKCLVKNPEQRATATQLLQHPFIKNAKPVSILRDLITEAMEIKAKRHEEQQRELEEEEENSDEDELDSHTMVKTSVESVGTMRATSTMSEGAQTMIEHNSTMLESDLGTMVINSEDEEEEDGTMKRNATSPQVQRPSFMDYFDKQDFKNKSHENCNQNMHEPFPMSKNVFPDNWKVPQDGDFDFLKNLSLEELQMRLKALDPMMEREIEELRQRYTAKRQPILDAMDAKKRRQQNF
Description: as §1

kinases (kinome) [11] = target: T11, kinases (kinome) (Homo sapiens, UniProt O75676); conditions: MSK2 (AGC), IPI00022536
T11 construct: determined in kinobeads assays with mass spectrometry detection of kinases as described previously; endogenous in cells; host or cells: cell lysate
Description: as §1

Measured: IC50

T2 sequence (Q02750 whole entry): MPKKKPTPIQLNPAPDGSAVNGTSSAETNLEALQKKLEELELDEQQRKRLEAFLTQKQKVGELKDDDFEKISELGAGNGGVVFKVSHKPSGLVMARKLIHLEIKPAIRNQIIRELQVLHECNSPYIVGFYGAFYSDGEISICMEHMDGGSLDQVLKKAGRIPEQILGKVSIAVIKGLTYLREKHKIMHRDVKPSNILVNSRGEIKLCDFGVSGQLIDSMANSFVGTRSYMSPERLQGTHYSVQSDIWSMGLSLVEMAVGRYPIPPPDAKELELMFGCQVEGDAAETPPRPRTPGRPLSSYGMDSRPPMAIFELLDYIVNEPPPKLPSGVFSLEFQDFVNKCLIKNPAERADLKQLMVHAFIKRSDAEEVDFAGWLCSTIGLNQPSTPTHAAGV
T3 sequence (P06493 whole entry): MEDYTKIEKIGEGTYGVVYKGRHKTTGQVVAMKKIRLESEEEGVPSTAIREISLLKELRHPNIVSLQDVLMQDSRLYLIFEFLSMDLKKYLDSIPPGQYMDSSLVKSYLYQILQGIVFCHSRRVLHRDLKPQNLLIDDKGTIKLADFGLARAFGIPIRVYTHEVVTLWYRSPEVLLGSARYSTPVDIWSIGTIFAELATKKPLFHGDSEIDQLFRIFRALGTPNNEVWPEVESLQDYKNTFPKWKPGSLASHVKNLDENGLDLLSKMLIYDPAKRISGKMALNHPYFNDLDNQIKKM
T1 sequence (O75716 whole entry): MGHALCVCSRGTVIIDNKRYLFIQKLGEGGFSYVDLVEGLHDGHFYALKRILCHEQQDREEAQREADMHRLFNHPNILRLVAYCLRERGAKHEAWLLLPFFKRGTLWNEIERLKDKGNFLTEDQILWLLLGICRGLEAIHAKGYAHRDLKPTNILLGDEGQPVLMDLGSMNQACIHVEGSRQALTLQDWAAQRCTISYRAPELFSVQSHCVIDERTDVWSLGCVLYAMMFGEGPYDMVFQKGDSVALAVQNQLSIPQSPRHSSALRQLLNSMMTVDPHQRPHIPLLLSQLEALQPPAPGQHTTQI
T8 sequence (Q16584 whole entry): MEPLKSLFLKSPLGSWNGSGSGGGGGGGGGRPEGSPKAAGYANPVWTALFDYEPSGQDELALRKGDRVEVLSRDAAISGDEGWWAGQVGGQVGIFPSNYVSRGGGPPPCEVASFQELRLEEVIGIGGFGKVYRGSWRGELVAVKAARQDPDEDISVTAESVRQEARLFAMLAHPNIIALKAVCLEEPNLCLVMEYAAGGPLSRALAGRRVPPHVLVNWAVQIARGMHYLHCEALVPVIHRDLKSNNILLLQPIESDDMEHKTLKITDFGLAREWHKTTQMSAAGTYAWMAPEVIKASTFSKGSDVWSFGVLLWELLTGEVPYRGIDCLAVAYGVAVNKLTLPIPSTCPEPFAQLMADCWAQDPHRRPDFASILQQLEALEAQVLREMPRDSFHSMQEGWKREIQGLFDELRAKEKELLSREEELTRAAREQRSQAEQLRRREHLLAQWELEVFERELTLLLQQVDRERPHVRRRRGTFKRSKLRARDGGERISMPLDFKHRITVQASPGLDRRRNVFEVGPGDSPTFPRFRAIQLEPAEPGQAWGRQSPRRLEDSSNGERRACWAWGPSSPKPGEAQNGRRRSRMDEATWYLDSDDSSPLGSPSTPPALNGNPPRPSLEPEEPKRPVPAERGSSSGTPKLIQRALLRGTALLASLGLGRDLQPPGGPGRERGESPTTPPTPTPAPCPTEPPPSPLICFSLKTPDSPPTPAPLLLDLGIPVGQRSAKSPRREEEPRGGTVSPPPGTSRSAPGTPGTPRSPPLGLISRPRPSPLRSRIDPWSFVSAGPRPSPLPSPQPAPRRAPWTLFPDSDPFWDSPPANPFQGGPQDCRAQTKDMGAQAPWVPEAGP
T7 sequence (P51617 whole entry): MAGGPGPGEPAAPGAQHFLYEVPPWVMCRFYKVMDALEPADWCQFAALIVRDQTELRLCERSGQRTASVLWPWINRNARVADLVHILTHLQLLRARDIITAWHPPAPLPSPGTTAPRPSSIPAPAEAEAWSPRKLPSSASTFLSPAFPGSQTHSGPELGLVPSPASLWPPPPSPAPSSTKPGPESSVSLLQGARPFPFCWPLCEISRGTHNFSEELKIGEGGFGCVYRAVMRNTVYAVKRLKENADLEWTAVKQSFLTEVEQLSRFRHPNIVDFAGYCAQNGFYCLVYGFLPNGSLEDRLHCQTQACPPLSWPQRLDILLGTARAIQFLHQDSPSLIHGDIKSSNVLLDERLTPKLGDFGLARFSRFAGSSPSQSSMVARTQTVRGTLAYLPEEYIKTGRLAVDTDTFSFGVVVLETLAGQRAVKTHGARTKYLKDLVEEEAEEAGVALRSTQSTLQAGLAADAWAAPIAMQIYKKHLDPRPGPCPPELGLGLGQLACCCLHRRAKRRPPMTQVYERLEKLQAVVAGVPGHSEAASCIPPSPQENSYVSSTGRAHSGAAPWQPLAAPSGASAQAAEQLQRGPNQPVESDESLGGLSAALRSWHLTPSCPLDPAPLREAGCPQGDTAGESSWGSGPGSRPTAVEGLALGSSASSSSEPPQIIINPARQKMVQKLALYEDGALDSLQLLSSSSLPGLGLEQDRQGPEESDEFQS
T4 sequence (Q8N5S9 whole entry): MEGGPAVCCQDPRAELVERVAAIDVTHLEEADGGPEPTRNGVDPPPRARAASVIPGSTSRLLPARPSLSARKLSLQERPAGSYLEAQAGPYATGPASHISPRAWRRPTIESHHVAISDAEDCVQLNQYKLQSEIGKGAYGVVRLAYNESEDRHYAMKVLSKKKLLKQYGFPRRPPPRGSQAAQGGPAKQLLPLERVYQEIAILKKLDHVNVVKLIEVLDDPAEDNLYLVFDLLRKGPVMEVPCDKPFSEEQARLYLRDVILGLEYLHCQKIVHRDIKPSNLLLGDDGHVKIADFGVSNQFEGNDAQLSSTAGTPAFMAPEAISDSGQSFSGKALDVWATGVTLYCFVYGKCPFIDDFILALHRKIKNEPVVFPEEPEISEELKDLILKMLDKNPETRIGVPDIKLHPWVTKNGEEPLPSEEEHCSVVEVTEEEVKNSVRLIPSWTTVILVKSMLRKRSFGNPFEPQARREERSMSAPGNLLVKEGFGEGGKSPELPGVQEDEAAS
T11 sequence (O75676 whole entry): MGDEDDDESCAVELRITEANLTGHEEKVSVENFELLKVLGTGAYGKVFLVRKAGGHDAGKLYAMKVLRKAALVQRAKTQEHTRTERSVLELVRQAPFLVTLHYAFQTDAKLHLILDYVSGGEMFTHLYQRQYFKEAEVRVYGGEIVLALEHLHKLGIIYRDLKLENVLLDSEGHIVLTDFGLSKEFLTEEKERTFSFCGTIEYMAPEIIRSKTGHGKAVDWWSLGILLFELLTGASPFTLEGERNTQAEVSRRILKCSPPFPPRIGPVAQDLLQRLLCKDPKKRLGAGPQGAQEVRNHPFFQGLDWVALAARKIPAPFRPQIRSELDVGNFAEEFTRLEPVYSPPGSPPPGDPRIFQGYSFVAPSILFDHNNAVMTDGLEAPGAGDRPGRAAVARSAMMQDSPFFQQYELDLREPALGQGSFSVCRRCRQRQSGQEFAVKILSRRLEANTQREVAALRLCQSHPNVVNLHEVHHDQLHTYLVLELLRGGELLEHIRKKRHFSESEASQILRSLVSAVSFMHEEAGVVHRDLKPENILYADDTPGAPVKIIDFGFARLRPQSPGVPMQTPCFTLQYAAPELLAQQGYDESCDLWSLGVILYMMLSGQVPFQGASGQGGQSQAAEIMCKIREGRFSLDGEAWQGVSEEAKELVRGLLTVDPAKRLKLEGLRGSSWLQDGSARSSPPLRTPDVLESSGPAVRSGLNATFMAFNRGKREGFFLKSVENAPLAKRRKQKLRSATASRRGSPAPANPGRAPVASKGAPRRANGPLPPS
T5 sequence (P36507 whole entry): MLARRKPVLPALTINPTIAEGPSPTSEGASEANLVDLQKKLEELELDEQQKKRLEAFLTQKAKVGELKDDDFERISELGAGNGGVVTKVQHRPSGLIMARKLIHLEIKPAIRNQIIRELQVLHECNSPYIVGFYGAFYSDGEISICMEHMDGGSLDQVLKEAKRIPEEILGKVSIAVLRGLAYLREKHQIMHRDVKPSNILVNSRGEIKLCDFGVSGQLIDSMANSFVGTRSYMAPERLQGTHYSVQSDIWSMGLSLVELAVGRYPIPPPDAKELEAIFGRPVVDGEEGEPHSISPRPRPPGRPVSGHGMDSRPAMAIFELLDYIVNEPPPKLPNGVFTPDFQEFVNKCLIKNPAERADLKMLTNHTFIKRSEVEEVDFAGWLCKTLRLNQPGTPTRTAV

C[C@H]1COCCN1c1nc(-c2ccc(NC(=O)N[C@H]3CCC[C@@H]3O)cc2)cc(-c2cc(F)ccc2S(C)(=O)=O)n1 [Example 76, 1-(4-(6-(5-fluoro-2-(methylsulfonyl)phenyl)-2-((S)-3-methylmorpholino)pyrimidin-4-yl)phenyl)-3-((1S,2S)-2-hydroxycyclopentyl)urea]
not listed: kinases (kinome) [8] | kinases (kinome) [9] | kinases (kinome) [10] | kinases (kinome) [11]
> 10 µM: all other assays above

C[C@H]1COCCN1c1nc(-c2ccc(NC(=O)NC3CC3)cc2)cc(-c2ccccc2S(C)(=O)=O)n1 [Example 4, (S)-1-cyclopropyl-3-(4-(2-(3-methylmorpholino)-6-(2-(methylsulfonyl)phenyl)pyrimidin-4-yl)phenyl)urea]
not listed: kinases (kinome) [6] | kinases (kinome) [10] | kinases (kinome) [11]
> 10 µM: all other assays above

C[C@H]1COCCN1c1cc(-c2ccccc2S(C)(=O)=O)nc(-c2ccc(NC(=O)NC3CC3)cc2)n1 [Example 6, (S)-1-cyclopropyl-3-(4-(4-(3-methylmorpholino)-6-(2-(methylsulfonyl)phenyl)pyrimidin-2-yl)phenyl)urea]
> 10 µM: kinases (kinome) [1] | kinases (kinome) [8] | kinases (kinome) [6] | kinases (kinome) [9]

C[C@H]1COCCN1c1cc(-c2ccccn2)nc(-c2ccc(NC(=O)NCCO)cc2)n1 [Example 43, (S)-1-(2-hydroxyethyl)-3-(4-(4-(3-methylmorpholino)-6-(pyridin-2-yl)pyrimidin-2-yl)phenyl)urea]
not listed: kinases (kinome) [1] | kinases (kinome) [3]
> 10 µM: all other assays above

C[C@H]1COCCN1c1nc(-c2ccc(NC(=O)NC3CC3)cc2)cc(-c2cccnc2S(C)(=O)=O)n1 [Example 46, (S)-1-cyclopropyl-3-(4-(2-(3-methylmorpholino)-6-(2-(methylsulfonyl)pyridin-3-yl)pyrimidin-4-yl)phenyl)urea]
not listed: kinases (kinome) [1] | kinases (kinome) [8] | kinases (kinome) [9]
> 10 µM: all other assays above

CCNC(=O)Nc1ccc(-c2cc(-c3ccccc3C#N)nc(N3CCOC[C@@H]3C)n2)cc1 [Example 8, (S)-1-(4-(6-(2-cyanophenyl)-2-(3-methylmorpholino)pyrimidin-4-yl)phenyl)-3-ethylurea]
> 10 µM: kinases (kinome) [8] | kinases (kinome) [9]

C[C@H]1COCCN1c1nc(-c2ccc(NC(=O)NC3CC3)cc2)cc(-c2cc(F)ccc2S(C)(=O)=O)n1 [Example 40, (S)-1-cyclopropyl-3-(4-(6-(5-fluoro-2-(methylsulfonyl)phenyl)-2-(3-methylmorpholino)pyrimidin-4-yl)phenyl)urea]
not listed: kinases (kinome) [1]
> 10 µM: all other assays above
